The EC50 is the concentration giving half of the maximal effect. Low readings indicate greater potency, high ones weaker potency.

Read-outs that look alike come from different tables or passages of the source.

The values that follow come from US10160705B2, “Class of HDAC inhibitors expands the renal progenitor cells population and improves the rate of recovery from acute kidney injury” (University of Pittsburgh—Of the Commonwealth System of …, priority 2011, dated 2018).

For series [1] the following is noted: cited from earlier work.
Series [2] has as its system kidney field. Kind of series: In situ hybridization for kidney markers (pax2a, pax8, cdh17, wt1a, slc4a4, slcl2a1). It counts as in vivo, zebrafish. To be noted: in situ hybridization, data not shown. Here is the method: (§1) PTBA was synthesized as described below. Hydroxyurea and aphidicolin were obtained from Sigma-Aldrich.
(§2) In situ hybridization and immunocytochemistry: In situ hybridization was performed as previously described with some modifications.142 Hybridization temperature was 65° C. Embryos were blocked in 2% blocking reagent (Roche) with 5% sheep serum in MAB (100 mM maleic acid and 150 mM NaCl [pH 7.5]). Whole-mount immunocytochemistry with 1:25 mouse anti-α6F antibody (Developmental Studies Hybridoma Bank) and 1:100 Cy3 secondary antibody (Jackson ImmunoResearch) was performed as described previously.108 Embryos were embedded in JB-4 for sectioning per the manufacturer's instructions (Polysciences), sectioned at 5 μm, and mounted with Cytoseal 60 (Richard-Allan Scientific).

For series [3], the system named is zebrafish embryos. As to the kind of experiment: Phenotypic screen for edema and survival in zebrafish larvae at 72 hpf. To be noted: for phenotype in initial chemical screen: 10 μM, larvae at 72 hpf; for larvae with edemic phenotype / pericardial edema by 72 hpf: 3 μM PTBA; for larvae with edemic phenotype / pericardial edema by 72 hpf / death by 72 hpf: 25 μM PBA, 200 nM TSA; for death by 72 hpf: n=90; for Dead / Edemic 1 (E1) / Edemic 2 (E2) / Edemic 3 (E3) / Wild-type (WT): number of larvae (of 36), 3 μM from 2 hpf, scored at 72 hpf. The method in brief:
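Embryos (5/well in primary screen; 12–30 per group otherwise) exposed from 2 hpf in E3 medium with 0.5% DMSO, 10 μM in screen or stated concentrations, 28.5 °C for 70 h. At 72 hpf, edema scored by phenotype classification (dominant phenotype in ≥4/5 embryos in screen); survival vs 0 μM by two-tailed Fisher's exact test (p<0.05).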

The subject of series [4] is HDAC. To be noted: 5 mM; cited from earlier work.
Series [5] has as its system human HDACs. Kind of series: Fluorescence histone deacetylation assay with HeLa cell nuclear extract. It counts as biochemical. To be noted: for HDAC activity elicited by 10 μg HeLa extract, percent of the control value: 5 mM compound. Here is the method: To evaluate this in vitro, the deacetylation of a fluorescent peptide substrate was measured in the presence of human HDACs.
In vitro HDAC activity assays were performed using a fluorescence HDAC assay kit (Active Motif) according to the manufacturer's instructions. For maintaining compound solubility at 5 mM, the final DMSO concentration in all assay wells was increased to 5%. Fluorescence was detected using an M5 Plate Reader ([…])

The subject of series [6] is histone H4. As to the kind of experiment: Histone H4 hyperacetylation Western blot in treated embryos. The class given is in vivo, zebrafish. To be noted: 24 hpf embryos, 6 hours; 3 μM PTBA, 25 μM PBA, 200 nM TSA. Here is the method: It was next determined whether the HDACi function of PTBA was quantifiable in vivo. 24 hpf embryos were treated with 3 μM PTBA, 25 μM PBA, or 200 nM TSA for 6 hours. Protein extracts were prepared and immunoblotted with an anti-hyperacetylated histone H4 antibody. […] Furthermore, increasing the compound concentration caused a corresponding increase in hyperacetylation (FIG. 21).
SDS-PAGE and Western blotting were performed as described previously with some modifications (Noel, E. S. et al. Organ-specific requirements for Hdac1 in liver and pancreas formation. Dev Biol 322, 237-250, (2008)). Proteins were separated on 18% SDS-PAGE gels. Membranes were incubated at 4° C. overnight with 1:1000 anti-hyperacetylated histone H4 antibody (06-946, Millipore) or 1:1000 anti-α-tubulin antibody (Sigma-Aldrich) in PBT containing 5% nonfat milk.
(In general: A western blot detects proteins with antibodies after separation by electrophoresis.)

For series [7], the system named is renal progenitor cells. Kind of series: In situ hybridization for lhx1a expression in 10-somite embryos (renal progenitor cell expansion). Conditions: for concentration producing an expansion of lhx1a expression consistent with 3 μM PTBA: concentration-response. It counts as in vivo. In outline:
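Zebrafish embryos treated with compound, then colorimetric whole-mount in situ hybridization (65° C) for lhx1a mRNA at 10 somites. Embryos with expanded kidney field counted manually as percent of total. EC50 taken as 50% point of percent-expansion trendline; compounds also classed effective, partial or ineffective versus PTBA at matched concentration.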

Series [8] concerns mesodermal markers myod1, fli1a, and ntla. Kind of series: In situ hybridization for the mesodermal markers myod1, fli1a and ntla in 10-somite embryos. It counts as in vivo, zebrafish. Here is the method:
as §1, §2

The test system of series [9] is CD1 mice. Kind of series: Folic acid-induced AKI in CD1 mice. It counts as in vivo, mouse. To be noted: daily IP from 24 hrs after folic acid, 15 days. Here is the method: FIG. 42 are photomicrographs showing the results of an AKI model using folic acid-induced injury. Folic acid is administered to CD1 mice (n=6/group) intraperitoneally (IP) at […] in 0.3M NaHCO3. Compound UPHD-00022 was injected daily IP at […] in 30% PEG300 vehicle starting 24 hrs after folic acid treatment. Kidney tissue was stained using Trichrome and Sirus Red stained after 15 days. Blue in trichrome and the red in sirus red indicates fibrotic (scar) tissue.

The mark [10] stands for this setting: 3 μM from 2 hpf, 10-somite embryos.
[11] abbreviates: 100 nM from 2 hpf, 10-somite embryos.
[12] abbreviates: 200 nM from 2 hpf, 10-somite embryos.

`O=C(O)CCCc1ccccc1` [Buphenyl]: the “half-life (t1/2)” value in series [1] (following administration) is around 1 h. The bioavailability entry in [1] (taken orally) is given as “about 80%”.

As for `N=C(N)SCc1ccc(Cl)cc1Cl.O=[N+]([O-])c1c(O)c(Cl)cc(Cl)c1Cl` [NSC35400], in series [2], the “size of the kidney field” value is recorded as “did not affect the size of the kidney field”. Further, the “phenotype in initial chemical screen” value in [3] is on record as “pericardial edema”.

As for `COc1ccc(/C=C(\C#N)C(N)=O)c(OC)c1` [NSC134664], in series [2], the “size of the kidney field” value is on record as “did not affect the size of the kidney field”. Moreover, in series [3], the “phenotype in initial chemical screen” value is “pericardial edema”.

As for `N=C(N)c1ccc(N=Nc2c(O)ccc3c2[nH]c2ccccc23)cc1` [NSC357777], in series [2], the “size of the kidney field” value was “did not affect the size of the kidney field”. Moreover, the “phenotype in initial chemical screen” value in [3] is listed as “pericardial edema”.

`O=C(O)CCCc1ccccc1` [PBA, 4-phenylbutanoic acid, reference compound]: in series [4], the “HDAC activity, percent of the control value” is given as 19%. The “HDAC activity elicited by 10 μg HeLa extract, percent of the control value” in [5] is 30%. In addition, in series [3], the “larvae with edemic phenotype / pericardial edema by 72 hpf” value is listed as 23%, the “death by 72 hpf” value was 8%, the Dead is on record as 0 and the “Edemic 1 (E1)” value is 0. Besides, in series [3], the “Edemic 2 (E2)” value was determined as 0, the “Edemic 3 (E3)” value is reported as 0 and the “Wild-type (WT)” value is 36. Moreover, the “histone H4 hyperacetylation” value in [6] is on record as “Histone H4 hyperacetylation was observed”. Also, in series [7] (setting [10]), the “Lhx1a expansion caused by analog treatment, 3 μM” value was “−”. Moreover, the “concentration producing an expansion of lhx1a expression consistent with 3 μM PTBA” value in series [7] (10-somite embryos) was determined as 25 µM.

Regarding `O=C(O)CCCS(=O)(=O)c1ccccc1` [PSOBA, 4-(phenylsulfonyl)butanoic acid, reference compound], in series [5], the “HDAC activity elicited by 10 μg HeLa extract, percent of the control value” came to 70%. In series [3], the Dead is 0, the “Edemic 1 (E1)” value is 0, the “Edemic 2 (E2)” value stood at 0 and the “Edemic 3 (E3)” value was 0. Moreover, the “Wild-type (WT)” value in series [3] came to 36. Moreover, in series [7] (setting [10]), the “Lhx1a expansion caused by analog treatment, 3 μM” value was “−” and the “lhx1a expansion, percent of treated embryos” value (shortened to “lhx1a expansion, percent”) is “no ability to expand renal progenitor cells”.

With `CC(/C=C/C(=O)NO)=C\[C@@H](C)C(=O)c1ccc(N(C)C)cc1` [TSA, trichostatin A, reference compound], the HDAC activity entry in [5] (1 μM TSA, all input levels of nuclear extract) is reported as “completely blocked activity”. The “treated 72 hpf larvae killed” value in [3] (300 nM) is given as “greater than 90%”. For the same compound, in [3], the “larvae with edemic phenotype / pericardial edema by 72 hpf” value was 100%, the “death by 72 hpf” value worked out at 61%, the Dead is 36 and the “Edemic 1 (E1)” value stood at 0. For the same compound, in series [3], the “Edemic 2 (E2)” value came to 0, the “Edemic 3 (E3)” value is 0 and the “Wild-type (WT)” value is listed as 0. Moreover, the “histone H4 hyperacetylation” value in [6] was “Histone H4 hyperacetylation was observed”. The “normal ntla expression disrupted, percent of treated embryos” value in series [8] (200 nM) came to 86%. For the same compound, the “myod1 expression decreased, percent of treated embryos” value in series [8] (3 μM PTBA (slightly decreased), 25 μM PBA, 200 nM TSA) is 100%. In addition, the “fli1a expression decreased, percent of treated embryos” value in series [8] (25 μM PBA, 200 nM TSA) amounted to 95%. For the same compound, in series [7] (setting [11]), the “Lhx1a expansion caused by analog treatment, 100 nM” value is listed as “+” and the “lhx1a expansion, percent” value amounted to 97%. Moreover, in series [7] (setting [12]), the “Lhx1a expansion caused by analog treatment, 200 nM” value is on record as “+” and the “lhx1a expansion, percent” value is 100%. Besides, the “lethality before reaching 10 somites” value in series [7] (400 nM) was “died before reaching 10 somites”. Further, the treated embryos killed result in [7] (800 nM) is reported as “lethal”. For the same compound, the “lethality before the 10-somite stage” value in [7] (1.5 μM) is listed as “lethal”. Further, the “lethality before the 10-somite stage” value in series [7] (3 μM) is “killed all treated embryos”. In series [7] (10-somite embryos), the “concentration producing an expansion of lhx1a expression consistent with 3 μM PTBA” value is 0.2 µM.

For `COC(=O)CCCSc1ccc(OC)cc1` [UPHD-00022, methyl 4-[(4-methoxy-phenyl)sulfanyl]butanoate], in series [3], the Dead is listed as 1, the “Edemic 1 (E1)” value was determined as 2, the “Edemic 2 (E2)” value came out at 24 and the “Edemic 3 (E3)” value is 9. Moreover, the “Wild-type (WT)” value in [3] came to 0. The “renal fibrosis (Trichrome and Sirus Red)” value in series [9] is “reduction in fibrosis”. For the same compound, the “Lhx1a expansion caused by analog treatment, 400 nM” value in series [7] (400 nM from 2 hpf, 10-somite embryos) is recorded as “+/−”. Also, the “Lhx1a expansion caused by analog treatment, 800 nM” value in series [7] (800 nM from 2 hpf, 10-somite embryos) was “+”. In addition, the “Lhx1a expansion caused by analog treatment, 1.5 μM” value in [7] (1.5 μM from 2 hpf, 10-somite embryos) is recorded as “+”. Also, the “Lhx1a expansion caused by analog treatment, 3 μM” value in series [7] (setting [10]) is on record as “+”. The responders at 1.5 µM in [7] (Danio rerio, 1.5 μM from 2 hpf, 10-somite embryos, read-out: lhx1a expansion, percent of treated embryos) amounted to 91%. Also, the responders at 0.8 µM in [7] (Danio rerio, percent of embryos with expanded kidney field, 800 nM, read-out: Expansion of Cells (including repeats* and recounts**) 800 nM) turned out to be 39%. Moreover, the responders at 1.5 µM in series [7] (Danio rerio, percent of embryos with expanded kidney field, 1.5 μM, read-out: Expansion of Cells (including repeats* and recounts**) 1.5 μM) was 83%. For the same compound, in [7] (Danio rerio, percent of embryos with expanded kidney field, 3 μM, read-out: Expansion of Cells (including repeats* and recounts**) 3 μM), the responders at 3 µM was 85%. In addition, in [7] (Danio rerio, read-out: lhx1a expansion, percent of treated embryos, 400 nM from 2 hpf, 10-somite embryos), the responders at 0.4 µM was 29%. Also, the responders at 0.8 µM in series [7] (Danio rerio, read-out: lhx1a expansion, percent of treated embryos, 800 nM from 2 hpf, 10-somite embryos) was found to be 57%. The compound further returned an EC50 in [7] (Danio rerio, first pass EC50 from percent expansion (Excel trendline), average where several experiments) of 1.4 µM.

For the compound `O=C(CCCCCCC(=O)Nc1ccc([C@H]2O[C@@H](CSc3nc(-c4ccccc4)c(-c4ccccc4)o3)C[C@@H](c3ccc(CO)cc3)O2)cc1)NO` [tubacin, reference compound], the “effect on zebrafish embryos in the phenotypic screen” value in [3] (3 μM) is on record as “appeared wild-type”. In addition, in [3], the Dead was found to be 0, the “Edemic 1 (E1)” value worked out at 0, the “Edemic 2 (E2)” value was determined as 0 and the “Edemic 3 (E3)” value is on record as 0. In series [3], the “Wild-type (WT)” value is given as 36. In addition, the “Lhx1a expansion caused by analog treatment, 3 μM” value in series [7] (setting [10]) was “−”.

For `CCCC(CCC)C(=O)O` [valproic acid, reference compound], in series [3], the Dead worked out at 0, the “Edemic 1 (E1)” value was 11, the “Edemic 2 (E2)” value was 0 and the “Edemic 3 (E3)” value is reported as 0. Further, the “Wild-type (WT)” value in [3] was determined as 25. Besides, the “Lhx1a expansion caused by analog treatment, 3 μM” value in [7] (setting [10]) is “+/−”. In addition, the responders at 3 µM in [7] (Danio rerio, 3 μM from 2 hpf, 10-somite embryos, read-out: lhx1a expansion, percent of treated embryos) was 20%.
